Tests used:
ES2 ovarian cancer cells = assay: Crystal violet viability assay, ES2; type: cell-based, human; details: 48 h; for Viability ES2: score 0-6 compared to positive control; for mutp53-specific effect on cell number, ES2: ES2 (mp53^S241F) versus ES2 p53KO
Protocol: (§1) Cell extracts were added to ELISA plates coated with the indicated antibodies to allow mutp53 to react with the peptides and antibodies. αp53-HRP Ab was used for assessment of p53 levels. Numbers represent ratio of absorbance between the PAb1620 and PAb240 samples. All reads were normalized to the control […] reading of each extract. MCF7 (WTp53) and H1299-mutp53^A135V (tsp53) cells were used as positive controls for the WTp53 conformation (1620/240 ratio equals or exceeds 5:1). […] 96 well plates were coated with anti-p53 antibody, cell extracts containing p53 were reacted with oligonucleotides that contain a p53RE consensus binding site, labeled with biotin, in the presence or absence (NT) of test peptides. Streptavidin-HRP is used to quantify the amount of oligos in the well. TMB assay was performed to determine bound mutp53 levels (450nm). MCF7 and the H1299-mutp53^A135V(TS) cells serve as positive controls for WTp53. C.and D. - Bar graphs illustrating the effect of various selected peptides on mut-p53 dependent expression on cell viability. […] D, ES2 cells expressing endogenous mutp53 (blue bars) and ES2 cells knocked out for p53 by CRISPR construct (light blue bars). Cell lines were treated with selected peptides, Cis-platinum was used as positive control for cell death. 48 hours after treatment, cells were washed with PBS, and the remaining attached cells were stained with Crystal violet and washed 4 times with PBS. Stained cells were dissolved in 10% acetic acid and plates were taken for optical density measurement at […]. TEXT PRINTED IN THE PICTURE: (A) pCAP1: 0.87 | (A) pCAP2: 0.53 | (A) pCAP3: 0.59 | (A) pCAP4: 0.59 | (A) pCAP5: 0.60 | (A) pCAP6: 0.75 | (A) pCAP23: 1.06 | (A) pCAP24: 1.44 | (A) pCAP36: 1.25 | (A) pCAP47: 1.54 | (A) pCAP54: 1.54 | (A) pCAP60: 2.73 | (A) pCAP68: 2.22 | (A) pCAP83: 1.56 | (A) pCAP97: 2.45 DOUBTS OF THE COPYIST ABOUT THIS PICTURE: Panel A: the numbers over the bars are printed very small, rotated and blurred, so 3, 5, 6, 8 and 9 cannot be told apart with certainty. All values are best readings: pCAP1 0.87, pCAP2 0.53, pCAP3 0.59, pCAP4 0.59, pCAP5 0.60, pCAP6 0.75, pCAP23 1.06, pCAP24 1.44, pCAP36 1.25, pCAP47 1.54, pCAP54 1.54, pCAP60 2.73, pCAP68 2.22, pCAP83 1.56, pCAP97 2.45 / Panel A: the picture prints no measure with the numbers over the bars, so they are given as bare numbers / Panel A: numbers are also printed over the controls, which are not substances and are left out of lines. Best readings: NT 0.60, 60° 30'' 0.48, 60° 1' 0.37, 60° 3' 0.13, 60° 10' 0.05, MCF7 3.32, H1299TS 3.25
(§2) We also performed a similar analysis on ES2 ovarian cancer cells, which express endogenous mp53^S241F, compared to ES2 cells in which p53 was stably knocked out using CRISPR/Cas9 (ES2 p53KO Figure S1F), to control for specificity for mutp53 (Figure 2D). In ES2 cells, too, some of the peptides caused a significant reduction in cell numbers, more prominent in the mutp53 expressing cells than in their p53KO counterparts. […] Overall, we performed this analysis on several different mutp53-expressing human cancer cell lines, and the results are summarized in Table S3. Based on this comprehensive picture, we reduced the number of most promising candidate lead peptides to 30. These peptides were then synthesized with an 8 arginine C-terminal tail for enhanced delivery across cell membranes (pCAPs 130-160); for clarity, peptides are referred to by their original number, with an R for poly arginine (see Table S3).
(§3) Cells were cultured in 96 wells plates with 2500-4000 cells/well. Serial dilutions of different peptides were added and the plates incubated for additional 48 h at 37°C. Then medium was removed and cell viability was determined by staining the cells with crystal violet (0.05%) in methanol/PBS (1:5, v/v), for 10 min, followed by 3 washes with PBS. 10% acetic acid was added to each well for 10 min. OD was determined at 595 nm.

[1] = system: H1299 cells expressing mutp53^R175H; assay: Crystal violet viability assay, H1299; type: cell-based; details: 48 h; for Viability H1299: score 0-6 compared to positive control; for mutp53-specific effect on cell number, H1299: H1299 mutp53^R175H versus p53-null
Protocol: Cell extracts were added to ELISA plates coated with the indicated antibodies to allow mutp53 to react with the peptides and antibodies. αp53-HRP Ab was used for assessment of p53 levels. Numbers represent ratio of absorbance between the PAb1620 and PAb240 samples. All reads were normalized to the control PAb241 reading of each extract. MCF7 (WTp53) and H1299-mutp53^A135V (tsp53) cells were used as positive controls for the WTp53 conformation (1620/240 ratio equals or exceeds 5:1). […] 96 well plates were coated with anti-p53 antibody, cell extracts containing p53 were reacted with oligonucleotides that contain a p53RE consensus binding site, labeled with biotin, in the presence or absence (NT) of test peptides. Streptavidin-HRP is used to quantify the amount of oligos in the well. TMB assay was performed to determine bound mutp53 levels (450nm). MCF7 and the H1299-mutp53^A135V(TS) cells serve as positive controls for WTp53. C.and D. - Bar graphs illustrating the effect of various selected peptides on mut-p53 dependent expression on cell viability. […] D, ES2 cells expressing endogenous mutp53 (blue bars) and ES2 cells knocked out for p53 by CRISPR construct (light blue bars). Cell lines were treated with selected peptides, Cis-platinum was used as positive control for cell death. 48 hours after treatment, cells were washed with PBS, and the remaining attached cells were stained with Crystal violet and washed 4 times with PBS. Stained cells were dissolved in 10% acetic acid and plates were taken for optical density measurement at 595nM.
This simple assay measures the total number of cells, thus reflecting the combination of both cell death and growth arrest effects. […] After 48 hours of treatment cells were stained with crystal violet and OD at 595nm was determined.
Values on the Y-axis reflect the number of cells in the treated wells, normalized to the non-treated samples (NT; red bars).

mutp53 = assay: Summary score of peptide functional screens; details: overall score over conformation, DNA binding, viability and PCR screens
SK3 = assay: Crystal violet viability assay, SK3; type: cell-based, human; details: score 0-6 compared to positive control, 48 h
Excerpt: as §2, §3

EP156 = assay: Crystal violet viability assay, EP156; type: cell-based; details: score 0-6 compared to positive control, 48 h
Excerpt: as §2, §3

mutp53^R175H = assay: ELISA of mutp53 DNA binding (p53RE oligonucleotide), H1299-p53^R175H cell extract; type: biochemical, human; details: for DNA H1299: score 0-6 compared to positive control, mutp53 DNA binding; for binding of mutp53 to the p53RE: H1299-p53^R175H extract, Figure 2B
Protocol: as §1
Next, we assessed the ability of our selected peptides to restore sequence-specific DNA binding to mutp53. To that end we employed an ELISA kit (R&D) in which cell extracts containing p53 are reacted with a biotinylated p53RE oligonucleotide and then incubated in wells coated with anti-p53 antibody, which is expected to trap the p53 protein and its associated p53RE DNA. The amount of p53RE retained in each well via p53 binding is quantified by incubation with streptavidin-HRP. […] Again, extracts of MCF7 and H1299-tsp53^A135V cells served as positive controls for WTp53 DNA binding activity. […] Importantly, there was substantial overlap between the peptides that stabilized the WT conformation (Figure 2A) and those that increased specific DNA binding (Figure 2B), further reinforcing the conclusion that those peptides stabilize mutp53 in a functional state. This was not seen with the randomly selected peptides 1-6 (black bars).
For these experiments, a commercial p53/DNA binding kit of “R&D” (Cat-DYC1355-5 Lot-1273366FA) was used, in accordance with manufacturer guide lines. Briefly, 96 well plates we coated with anti-p53 antibody overnight. Cell extracts containing p53 are reacted with an oligonucleotide that contains a p53 consensus binding site (provided in the kit), labeled with Biotin, in the presence or absence (NT) of test peptides. […]

WI38 = assay: Crystal violet viability assay, WI38; type: cell-based; details: score 0-6 compared to positive control, 48 h
Protocol: as §3

## EVTFRHSVV [pCAP-1, randomly selected peptide used as inert comparison]
ES2 ovarian cancer cells
  Viability ES2: 4
[1]
  Viability H1299: 1
mutp53
  SCORE: 19
SK3
  Viability SK3: 3

## HANLHHT [pCAP-87]
EP156
  Viability EP156: 4
[1]
  Viability H1299: 3
mutp53
  SCORE: 32

## HHPWTHHQRWS [pCAP-20]
ES2 ovarian cancer cells
  Viability ES2: 3
mutp53
  SCORE: 19
SK3
  Viability SK3: 3

## HSSHHHPVHSWN [pCAP-83]
mutp53^R175H
  DNA H1299: 5
ES2 ovarian cancer cells
  mutp53-specific effect on cell number, ES2: mutp53-specific effect
EP156
  Viability EP156: 4
WI38
  Viability WI38: 3
[1]
  mutp53-specific effect on cell number, H1299: mutp53-specific effect
  Viability H1299: 4
mutp53
  SCORE: 27

## IRGRIIR [pCAP-54]
mutp53^R175H
  binding of mutp53 to the p53RE: marked increase
  DNA H1299: 2
ES2 ovarian cancer cells
  mutp53-specific effect on cell number, ES2: mutp53-specific effect
EP156
  Viability EP156: 4
WI38
  Viability WI38: 4
[1]
  mutp53-specific effect on cell number, H1299: mutp53-specific effect
mutp53
  SCORE: 23
SK3
  Viability SK3: 4

## IRGRIIRRRRRRRRR [pCAP-54R, pCAP-54 with poly arginine tail]
mutp53^R175H
  DNA H1299: 2
ES2 ovarian cancer cells
  Viability ES2: 3
EP156
  Viability EP156: 4
WI38
  Viability WI38: 4
[1]
  Viability H1299: 2
mutp53
  SCORE: 28
SK3
  Viability SK3: 4

## IRILMFLIGCGR [pCAP-23]
mutp53^R175H
  DNA H1299: 1
ES2 ovarian cancer cells
  Viability ES2: 3
EP156
  Viability EP156: 4
[1]
  Viability H1299: 3
mutp53
  SCORE: 21
SK3
  Viability SK3: 3

## IRILMFLIGCGRRRRRRRRR [pCAP-23R, pCAP-23 with poly arginine tail]
mutp53^R175H
  DNA H1299: 3
ES2 ovarian cancer cells
  Viability ES2: 3
EP156
  Viability EP156: 4
WI38
  Viability WI38: 2
[1]
  Viability H1299: 3
mutp53
  SCORE: 24
SK3
  Viability SK3: 3

## LHSKTLVL [pCAP-17]
mutp53^R175H
  DNA H1299: 3
ES2 ovarian cancer cells
  Viability ES2: 3
EP156
  Viability EP156: 4
mutp53
  SCORE: 20
SK3
  Viability SK3: 3

## LRCLLLLIGRVG [pCAP-24]
mutp53^R175H
  DNA H1299: 3
ES2 ovarian cancer cells
  mutp53-specific effect on cell number, ES2: mutp53-specific effect
EP156
  Viability EP156: 4
[1]
  mutp53-specific effect on cell number, H1299: mutp53-specific effect
mutp53
  SCORE: 23

## LRCLLLLIGRVGRRRRRRRR [pCAP-24R, pCAP-24 with poly arginine tail]
mutp53^R175H
  DNA H1299: 3
ES2 ovarian cancer cells
  Viability ES2: 3
EP156
  Viability EP156: 4
[1]
  Viability H1299: 4
mutp53
  SCORE: 34
SK3
  Viability SK3: 2

## SFILFIRRGRLG [pCAP-60]
mutp53^R175H
  binding of mutp53 to the p53RE: marked increase
  DNA H1299: 3
ES2 ovarian cancer cells
  mutp53-specific effect on cell number, ES2: mutp53-specific effect
  Viability ES2: 3
EP156
  Viability EP156: 4
[1]
  mutp53-specific effect on cell number, H1299: mutp53-specific effect
  Viability H1299: 2
mutp53
  SCORE: 26
SK3
  Viability SK3: 3

## WNHHHSTPHPAH [pCAP-97]
mutp53^R175H
  binding of mutp53 to the p53RE: marked increase
  DNA H1299: 4
ES2 ovarian cancer cells
  mutp53-specific effect on cell number, ES2: mutp53-specific effect
  Viability ES2: 3
EP156
  Viability EP156: 3
WI38
  Viability WI38: 4
[1]
  mutp53-specific effect on cell number, H1299: mutp53-specific effect
  Viability H1299: 3
mutp53
  SCORE: 39

## YPTQGHLR [pCAP-36]
mutp53^R175H
  DNA H1299: 2
ES2 ovarian cancer cells
  mutp53-specific effect on cell number, ES2: mutp53-specific effect
  Viability ES2: 3
EP156
  Viability EP156: 4
WI38
  Viability WI38: 4
[1]
  mutp53-specific effect on cell number, H1299: mutp53-specific effect
  Viability H1299: 2
mutp53
  SCORE: 32

## YRRLLIGMMWRRRRRRRRR [pCAP-68]
mutp53^R175H
  binding of mutp53 to the p53RE: marked increase
  DNA H1299: 3
ES2 ovarian cancer cells
  Viability ES2: 5
EP156
  Viability EP156: 3
[1]
  Viability H1299: 3
mutp53
  SCORE: 37

## myr-PRVLPSPHTIHPSQYP [pCAP-229, myristoylated peptide, similarity to HIPK2]
mutp53^R175H
  DNA H1299: 4
EP156
  Viability EP156: 3
WI38
  Viability WI38: 3
[1]
  Viability H1299: 4
mutp53
  SCORE: 35
SK3
  Viability SK3: 3
